{"source": "patent US20130005660A1", "about": "“Plasma Activation of Biological Materials for Surface Modification” (ORTHOBOND, INC., priority 2011, published 2013)", "assay": "Stability of gentamicin in 0.25M HCl under autoclave conditions", "assay_type": "physicochemical", "data": [{"substance": "gentamicin", "values": [{"measurement": "stability of gentamicin", "result": "No significant loss of gentamicin detection"}]}]}
